# In paper PMC10707992 (2023):
# Test system: FAM-Apt (DNA, aptamer) ATCACGTGTTGTCTCTCTGTGTCTCGTG
# Test: FRET strand-displacement assay (fluorescence recovery)
# Conditions: 20 mM Mg-acetate, 100 mM Na-acetate; Tris-acetate pH 8.5, 25 °C; 3'-RTQ1 cDNA CAGAGAGAC not displaced; tested at 1 µM
row,binding,SMILES
1,no,C[C@@H]1Cc2c(Cl)cc(C(=O)N[C@@H](Cc3ccccc3)C(=O)O)c(O)c2C(=O)O1
2,no,C[C@H]1CCCC(=O)CCC/C=C/c2cc(O)cc(O)c2C(=O)O1
